Values quoted from earlier work as cited in patent publication US20050153948A1, “Methods and formulations for the treatment of medical conditions related to elevated dihydrotestosterone” (Zomanex, LLC, priority 2003, published 2005).

Key:
[1] = aqueous sterol/lecithin formulation, deuterated compounds, humans
[2] = tested on: circulating serum DHT; conditions: two clinical trials
[3] = tested on: prostate cancer; conditions: 5 mg per day, seven-year trial; placebo group 24.4 percent
[4] = biological target: T1, type II enzyme (5α-reductase) (Homo sapiens, UniProt P31213); conditions: type II 5α-reductase; read-out: K1 for type II enzyme
T1 sequence (P31213 1-254): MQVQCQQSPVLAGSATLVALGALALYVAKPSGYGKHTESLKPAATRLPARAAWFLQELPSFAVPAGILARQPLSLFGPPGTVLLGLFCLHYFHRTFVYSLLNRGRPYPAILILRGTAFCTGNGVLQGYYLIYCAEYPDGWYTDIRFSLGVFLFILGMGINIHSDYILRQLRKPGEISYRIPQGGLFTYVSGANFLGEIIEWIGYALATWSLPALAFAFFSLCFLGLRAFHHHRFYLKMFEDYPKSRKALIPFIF

[5] = biological target: T2, Type I human reductase (Homo sapiens, UniProt P18405); conditions: Type I human 5α-reductase; read-out: K1 for Type I human reductase
T2 sequence (P18405 1-259): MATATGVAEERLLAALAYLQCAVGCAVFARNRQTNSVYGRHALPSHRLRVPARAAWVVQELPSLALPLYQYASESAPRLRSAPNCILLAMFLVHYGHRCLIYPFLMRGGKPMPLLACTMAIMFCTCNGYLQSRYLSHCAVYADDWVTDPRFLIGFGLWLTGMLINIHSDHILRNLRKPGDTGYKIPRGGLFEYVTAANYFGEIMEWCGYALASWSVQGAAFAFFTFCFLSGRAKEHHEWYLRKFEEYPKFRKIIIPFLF

[6] = tested on: prostate (benign prostatic hyperplasia); conditions: long-term use; reduced from about 10 percent

| Structure (SMILES) | absorption relative to reduced derivatives sitostanol and campestanol [1] | reduction in circulating serum DHT [2] [%] | cumulative incidence of cancer [3] [%] | Ki [4] [nM] | Ki [5] [nM] | need for surgical intervention for BPH [6] [%] |
| --- | --- | --- | --- | --- | --- | --- |
| CC(C)[C@H](C)CC[C@@H](C)[C@H]1CC[C@H]2[C@@H]3CC=C4C[C@@H](O)CC[C@]4(C)[C@H]3CC[C@]12C [campesterol] | about ten | – | – | – | – | – |
| CC(C)(C)NC(=O)[C@H]1CC[C@H]2[C@@H]3CC[C@H]4NC(=O)C=C[C@]4(C)[C@H]3CC[C@]12C [finasteride] | – | 65 | 18.4 | 12 | 325 | 5 |
| CC[C@H](CC[C@@H](C)[C@H]1CC[C@H]2[C@@H]3CC=C4C[C@@H](O)CC[C@]4(C)[C@H]3CC[C@]12C)C(C)C [sitosterol] | about ten | – | – | – | – | – |
